According to patent US6168934A, “Oligosaccharide enzyme substrates and inhibitors: methods and compositions” (The Scripps Research Institute, priority 1998, dated 2001):
Values belong to the molecule of their own block, whether it stands above or below them.

Legend:
[1] = molecular target: T1, fucosyl α1,3/1,4 transferase (FucT; EC 2.4.1.65), recombinant (Homo sapiens, UniProt P21217); assay: Fucosyltransferase inhibition studies (IC50); format: biochemical; conditions: 2 mM N-acetyllactosamine; for inhibitory effect: up to concentrations of 50 mg/mL
T1 construct: gift of Dr. J. B. Lowe, University of Michigan
T1 sequence (P21217 1-361): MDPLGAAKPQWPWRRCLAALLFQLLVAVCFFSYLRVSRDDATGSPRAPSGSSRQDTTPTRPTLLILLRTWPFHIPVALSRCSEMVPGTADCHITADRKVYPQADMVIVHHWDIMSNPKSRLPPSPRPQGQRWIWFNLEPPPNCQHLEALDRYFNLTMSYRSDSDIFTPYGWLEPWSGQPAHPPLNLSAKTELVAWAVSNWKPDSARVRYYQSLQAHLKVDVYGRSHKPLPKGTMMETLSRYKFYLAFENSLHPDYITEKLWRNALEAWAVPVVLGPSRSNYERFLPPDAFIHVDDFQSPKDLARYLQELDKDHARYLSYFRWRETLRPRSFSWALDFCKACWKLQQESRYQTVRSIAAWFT
Procedure: For other studies, such as those using a recombinant fucosylα1,3/4transferase (EC 2.4.1.65) whose results are shown in Table 1a, a stock mixture containing 0.25 mM ^14 C-GDP-fucose (5000 cpm/μL), 6.25 mM ATP, 25 mM MnCl2 are 62.5 mM cacodylate buffer, pH 6.2, was admixed fresh on the day of use, and stored on ice. To that solution, Fuc T was added immediately before use, and the reaction was initiated by the combination of 16 μL of that mixture with 4 μL of 100 mM acceptor substrate. The resulting admixture was then incubated at 37° C. for 30-240 minutes, depending upon the acceptor substrate (reactant compound) under study.
In this equation, m=slope and b=y-intercept.
Percent inhibition=m([inhibitor])+b equation 2

[2] = molecular target: β-galactosidase (EC 3.2.1.23 from E. coli) (Escherichia coli, UniProt P00722); assay: Inhibition of β-galactosidase hydrolysis of p-nitrophenyl β-galactoside; format: biochemical; conditions: p-nitrophenyl β-galactoside hydrolysed at the same rate with and without azasugar; concentration not given
Chain of β-galactosidase (EC 3.2.1.23 from E. coli) (P00722 2-1024): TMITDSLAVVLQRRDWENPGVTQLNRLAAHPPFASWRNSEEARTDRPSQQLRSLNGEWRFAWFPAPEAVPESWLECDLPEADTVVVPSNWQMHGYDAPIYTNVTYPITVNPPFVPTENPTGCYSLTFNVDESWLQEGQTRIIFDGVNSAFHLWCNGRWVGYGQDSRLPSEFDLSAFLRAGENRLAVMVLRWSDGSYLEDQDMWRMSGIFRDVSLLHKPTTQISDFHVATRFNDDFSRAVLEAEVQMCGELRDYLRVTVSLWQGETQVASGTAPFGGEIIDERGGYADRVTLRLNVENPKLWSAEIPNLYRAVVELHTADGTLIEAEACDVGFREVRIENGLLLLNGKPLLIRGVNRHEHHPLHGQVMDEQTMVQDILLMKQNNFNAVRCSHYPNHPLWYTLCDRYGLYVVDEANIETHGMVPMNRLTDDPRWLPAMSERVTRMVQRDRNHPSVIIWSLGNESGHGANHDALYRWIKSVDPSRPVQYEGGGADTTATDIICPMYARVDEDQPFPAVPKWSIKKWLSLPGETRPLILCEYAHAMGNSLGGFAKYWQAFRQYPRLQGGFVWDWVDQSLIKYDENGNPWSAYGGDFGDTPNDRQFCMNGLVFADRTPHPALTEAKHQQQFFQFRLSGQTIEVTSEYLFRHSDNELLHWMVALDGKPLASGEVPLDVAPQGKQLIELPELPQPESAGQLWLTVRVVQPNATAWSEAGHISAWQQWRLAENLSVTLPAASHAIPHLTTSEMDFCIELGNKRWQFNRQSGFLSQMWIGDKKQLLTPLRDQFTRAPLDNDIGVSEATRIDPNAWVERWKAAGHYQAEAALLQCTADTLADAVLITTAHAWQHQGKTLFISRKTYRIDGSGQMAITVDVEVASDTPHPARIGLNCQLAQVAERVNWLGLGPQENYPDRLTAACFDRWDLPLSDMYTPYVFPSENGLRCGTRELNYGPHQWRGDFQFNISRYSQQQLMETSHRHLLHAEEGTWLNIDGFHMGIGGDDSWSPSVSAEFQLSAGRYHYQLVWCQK
Excerpt: Not all of the monosaccharide acceptors of the present invention are suitable substrates for β-galactosidase. For example, when Compound 3 or 4 from Table 2 are used as a substrate, no product was obtained.

[3] = molecular target: β-Glucosidase (Sweet Almond); assay: Glycosidase inhibition, β-glucosidase (SA); format: biochemical; conditions: p-nitrophenyl β-D-glucoside, PIPES-NaOAc buffer pH 6.5
Excerpt: (§1) Materials: All of the buffers, enzymes, and substrates were purchased from Sigma and used as received. These included piperazine-N,N'-bis (2-ethanesulfonic acid) (PIPES), sodium acetate (NaOAc), ethylenediaminetetraacetic acid (EDTA), β-D-glucosidase (from sweet almond), p-nitrophenyl β-D-glucoside, p-nitrophenyl α-D-glucosidase, p-nitrophenyl α-D-glucoside, β-N-acetyl-D-glucosaminedase, p-nitrophenyl β-N-acetyl-D-glucosaminide, α-D-mannosidase and p-nitrophenyl α-D-mannoside.
(§2) (b) PIPES-NaOAc buffer (0.01 M PIPES, 0.2 M NaOAc and 0.01 mM EDTA, pH 6.5). This buffer was prepared according to the literature procedure [Dale et al., Biochemistry, 24:3530 (1985)].
(c) β-D-Glucosidase: The stock enzyme solution was prepared by dissolving 15 mg of solid protein (4 units/mg) in 1 mL PIPES-NaOAc buffer solution. This stock enzyme solution was diluted 5-fold for the enzymatic assay.
(§3) (g) Substrate solutions: all substrates were dissolved in the corresponding buffer solution for enzymatic assay.
(§4) For each inhibitor, five inhibitor concentrations, ranging from zero to three times Ki, were generally used to determine the Ki value. […] The amount of enzyme added in each assay was adjusted so that less than 10 percent of the substrate, with its lowest substrate concentration, would be consumed within 45 seconds. Since all of the substrates have p-nitrophenol as leaving group, the assays were monitored at 400 nanometers (nm), where the molecular extinction coefficient, ε, was calibrated to be 3204.5 M^-1 cm^-1 at pH 6.5. The following illustrates the detailed procedure.
(§5) To a 1 mL disposable cuvette were added 950 microliters (μL) of the NaOAc-PIPES buffer solution, 20 μL of the inhibitor solution and 20 μL of the p-nitrophenyl β-D-glucoside solution (100 mM in PIPES-NaOAc buffer, pH 6.5). The solution was well mixed and 20 μL of the β-D-glucosidase solution were injected into the cuvette to start the reaction. The reaction was monitored at 400 nm on a Beckman DU-70 photospectrometer for 45 seconds and the initial hydrolysis rate was calculated. […]

[4] = molecular target: α-Glucosidase (Brewer's Yeast); assay: Glycosidase inhibition, α-glucosidase (BY); format: biochemical; conditions: p-nitrophenyl α-D-glucoside, PIPES-NaOAc buffer pH 6.5
Excerpt: as §1, §2
(d) α-D-Glucosidase: 1.5 mg of solid protein (70 units/mg) were dissolved in 1 mL PIPES-NaOAc buffer solution and used for assays without further dilution.
as §3, §4
as §5, with “calculated. The same procedure was repeated with five other substrate concentrations.” for “calculated.”

[5] = molecular target: E. coli CMP-sialic acid synthetase (CMP-NeuAc synthetase, EC 2.7.7.43), native enzyme (Escherichia coli O18:K1:H7, UniProt P13266); assay: Kinetic studies of native CMP-NeuAc synthetase; conditions: pH 9.0, 37° C.
Chain of E. coli CMP-sialic acid synthetase (CMP-NeuAc synthetase, EC 2.7.7.43), native enzyme (P13266 whole entry): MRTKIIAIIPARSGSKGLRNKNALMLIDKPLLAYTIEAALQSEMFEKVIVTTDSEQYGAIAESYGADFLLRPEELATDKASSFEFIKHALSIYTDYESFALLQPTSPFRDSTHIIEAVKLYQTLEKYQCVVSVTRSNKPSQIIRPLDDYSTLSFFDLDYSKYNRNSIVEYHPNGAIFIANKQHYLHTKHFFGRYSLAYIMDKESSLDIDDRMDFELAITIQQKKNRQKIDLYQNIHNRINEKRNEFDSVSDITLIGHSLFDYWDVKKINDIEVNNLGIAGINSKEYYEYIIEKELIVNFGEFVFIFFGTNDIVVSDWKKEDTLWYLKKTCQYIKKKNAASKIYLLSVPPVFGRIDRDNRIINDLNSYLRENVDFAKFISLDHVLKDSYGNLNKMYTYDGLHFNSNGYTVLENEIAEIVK
Procedure: (§10) The activity of the native or the modified CMP-NeuAc synthetase was assayed using a thiobarbituric acid method described by Vann et al., J. Biol. Chem., 262:17556 (1987). […] After the mixture was incubated at 37° C. for 30 minutes, 50 mL of 1.6 M NaBH4 was added to destroy excess NeuAc, and the mixture was heated at room temperature for an additional 15 minutes. The mixture was then put in the ice bath and 50 mL of H3 PO4 were added to destroy NaBH4.
(§11) The resulting mixture was kept at zero degrees C for five minutes then incubated at 37° C. for 10 minutes to cleave the phosphoester bond of the formed CMP-NeuAc. The free NeuAc was oxidized with 50 mL of 0.2 M NaIO4 at room temperature for 10 minutes, and 400 mL of 4 percent NaAsO2 in 0.5 N HCl were added. […] After the solution was cooled, 1 mL of the solution was taken out and mixed with 1 mL of cyclohexanone. That mixture was shaken and centrifuged, and the upper layer was taken for measurement at 549 nm (e=4.11 mM^-1 cm^-1).
(§12) where A is [CTP], B is [NeuAc], Ka and Kb are the Michaelis constants for CTP and NeuAc, respectively, and Kia is the dissociation constant (or inhibition constant) for CTP.

[6] = system: Nc1ccn([C@@H]2O[C@H](COP(=O)(O)OP(=O)(O)OP(=O)(O)O)[C@@H](O)[C@H]2O)c(=O)n1; assay: Kinetic studies of modified (tagged) CMP-NeuAc synthetase; format: biochemical, E. coli; conditions: other: pH 9.0, 37° C.
Procedure: (§6) The construction of plasmid CMPSIL-1, which contains the modified CMP-NeuAc synthetase gene (Example 2), was accomplished by the method of Ichikawa et al., J. Am. Chem. Soc., 113:4698 (1991). The CMP-NeuAc synthetase gene was fused with the decapeptide tag sequence Tyr-Pre-[…](SEQ ID NO:3) at the C-terminus, cloned into a lambda ZAP™ vector at EcoRI and XbaI sites and overexpressed in E. coli Sure strain.
(§7) The activity of the native or the modified CMP-NeuAc synthetase was assayed using a thiobarbituric acid method described by Vann et al., J. Biol. Chem., 262:17556 (1987). Briefly, the enzyme was added to a […] buffer containing 5.5 mM CTP, 2.8 mM N-acetylneuraminic acid, 0.2 M Tris, 20 mM MgCl2 and 0.2 mM DTT, pH 9.0, to form a mixture. After the mixture was incubated at 37° C. for 30 minutes, 50 mL of 1.6 M NaBH4 was added to destroy excess NeuAc, and the mixture was heated at room temperature for an additional 15 minutes. The mixture was then put in the ice bath and 50 mL of H3 PO4 were added to destroy NaBH4.
(§8) The resulting mixture was kept at zero degrees C for five minutes then incubated at 37° C. for 10 minutes to cleave the phosphoester bond of the formed CMP-NeuAc. The free NeuAc was oxidized with 50 mL of 0.2 M NaIO4 at room temperature for 10 minutes, and 400 mL of 4 percent NaAsO2 in 0.5 N HCl were added. The solution mixture was the transferred to a test tube containing 1 mL of 0.6 percent thiobarbituric acid in 0.5 M Na2 SO4, and heated in boiled water for 15 minutes. After the solution was cooled, 1 mL of the solution was taken out and mixed with 1 mL of cyclohexanone. That mixture was shaken and centrifuged, and the upper layer was taken for measurement at 549 nm (e=4.11 mM^-1 cm^-1).
(§9) Initial velocities were measured at various concentrations of CTP (1.25-5 mM) and NeuAc (2-8 mM) for kinetic studies. The data were fitted into the sequential bi-bi substrate rate equation 3, shown below, to derive the Michaelis constants and maximum velocity (V) using a Sigma plot program from Sigma Co. [formula] […]

[7] = system: CC(=O)N[C@H]1[C@H]([C@H](O)[C@H](O)CO)OC(O)(C(=O)O)C[C@@H]1O; assay: as above; format: biochemical, E. coli; conditions: other: pH 9.0, 37° C.
Procedure: as §6, §7, §8, §9

[8] = system: Nc1ccn([C@@H]2O[C@H](COP(=O)(O)OP(=O)(O)OP(=O)(O)O)[C@@H](O)[C@H]2O)c(=O)n1; assay: purified protein, by the assay type; conditions: other: pH 9.0, 37° C.
Procedure: as §10, §11, §12

inhibitory effect [1]: did not exhibit any inhibitory effect
Molecule: C=CCO[C@@H]1O[C@H](CO)[C@@H](O[C@@H]2O[C@H](CO)[C@H](O)[C@H](O)[C@H]2O)C[C@H]1NC(C)=O [Compound 2i, Allyl β-D-galactopyranosyl-(1,4)-2-acetamido-2,3-dideoxy-β-D-glucopyranoside]

Molecule: OC[C@H]1NC[C@H](O)[C@@H](O)[C@@H]1O [Compound 3]
inhibition of β-galactosidase [2]: Neither azasugar was an inhibitor

Molecule: C[C@H]1NC[C@H](O)[C@@H](O)[C@@H]1O [Compound 4]
inhibition of β-galactosidase [2]: Neither azasugar was an inhibitor

inhibitory effect [1]: did not exhibit any inhibitory effect
Molecule: OC[C@H]1O[C@@H](O[C@H]2[C@H](O)C=CO[C@@H]2CO)[C@H](O)[C@@H](O)[C@H]1O [Compound 8, P-D-Galactopyranosyl-(1,4)-D-glucal]

IC50 ([1]; Example 8): ~40 mM | IC50 ([1]; Table 1a, 14C-GDP-fucose, pH 6.2, 37° C., IC50 extrapolated from linear fit): 40 mM
Molecule: OC[C@H]1NC[C@H](O)[C@@H](O)[C@@H]1O[C@@H]1O[C@H](CO)[C@H](O)[C@H](O)[C@H]1O [Compound 10a, 6-D-Galactopyranosyl-(1,4) -deoxynojirimycin]

Molecule: C[C@H]1NC[C@H](O)[C@@H](O)[C@@H]1O [Compound 103c, (2R)-methyl-(3R,4R,5S)-trihydroxypiperidine]
Ki [3]: 0.78 mM | Ki [4]: 1.56 mM

Molecule: C[C@@H]1[C@@H](O)[C@H](O)[C@@H](O)CN1C [Compound 117, (1,2R)-dimethyl-(3R,4R,5S)-trihydroxypiperidine]
Ki [3]: 0.14 mM | Ki [4]: 1.78 mM

Molecule: C[C@@H]1[C@@H](O)[C@H](O)[C@@H](O)C[N@+]1(C)[O-] [Compound 118, (1,2R)-dimethyl-(3R,4R,5S)-trihydroxypiperidine oxide]
Ki [3]: 1.49 mM | Ki [4]: 6.95 mM

Molecule: CC(=O)N[C@H]1[C@H]([C@H](O)[C@H](O)CO)OC(O)(C(=O)O)C[C@@H]1O (stereo partly drawn) [NeuAc, N-acetylneuraminic acid]
Km ([5]; read-out: Km for NeuAc): 4 mM | kcat ([5]; substrates NeuAc and CTP): 1.8 s⁻¹

Molecule: E. coli CMP-sialic acid synthetase (CMP-NeuAc synthetase, EC 2.7.7.43), modified (tagged) enzyme with C-terminal decapeptide tag, SEQ ID NO:3 (Escherichia coli RS218)
Km [6]: 1.99 mM | Km [7]: 4.8 mM | kcat [7]: 1.9 s⁻¹

Molecule: E. coli CMP-sialic acid synthetase (CMP-NeuAc synthetase, EC 2.7.7.43), native enzyme (Escherichia coli RS218)
Km [8]: 0.31 mM
